Measurements reported in publication PMC11882969 (Nature Communications, 2025).
Where “and” joins values, the source holds several entries; their conditions need not be identical. Identical values can stand only once. Marks after values point to notes of the source that are not given here.

Key:
Malate dehydrogenase = assay: Enzyme inhibition counter-screen, MDH; format: biochemical; conditions: Log[7019], sheet FigS2d
Method: Enzyme inhibition assays to test for colloidal inhibition were performed at room temperature using CLARIOstar Plate Reader (BMG Labtech). Samples were prepared in 50 mM KPi buffer, pH 7.0 with final DMSO concentration at 1% (v/v). Compounds were incubated with 2 nM AmpC β-lactamase (AmpC) or Malate dehydrogenase (MDH) for 5 min. AmpC reactions were initiated by the addition of 50 μM CENTA chromogenic substrate (219475, Calbiochem). […] MDH reactions were initiated by the addition of 200 μM nicotinamide adenine dinucleotide (NADH) (54839, Sigma Aldrich) and 200 μM oxaloacetic acid (324427, Sigma Aldrich). The change in absorbance was monitored at 340 nm for 60 sec. Initial rates were divided by the DMSO control rate to determine % enzyme activity. Each compound was screened at 100μM in triplicate for three independent experiments, if enzyme inhibition greater than 30% was observed, 8-point half-log concentrations were performed in triplicate for three independent experiments. Data was analyzed using GraphPad Prism 9.1.

[1] = Dynamic light scattering, colloidal aggregation; format: physicochemical; conditions: Log[compound, replicates, sheet FigS2b
Method: Samples were prepared as 8-point half-log dilutions in filtered 50 mM KPi buffer, pH 7.0 with final DMSO concentration at 1% (v/v). Colloidal particle formation was measured using DynaPro Plate Reader II (Wyatt Technologies). All compounds were screened in triplicate.

Structure (SMILES) | MDH inhibition (Malate dehydrogenase; uM 0) | MDH inhibition (Malate dehydrogenase; uM 1) | MDH inhibition (Malate dehydrogenase; uM 1.49996) | MDH inhibition (Malate dehydrogenase; uM 2) | MDH inhibition (Malate dehydrogenase; uM -0.500011) | MDH inhibition (Malate dehydrogenase; uM -1) | DLS scattering intensity ([1]; uM] 0) | DLS scattering intensity ([1]; uM] 1) | DLS scattering intensity ([1]; uM] 1.49996) | DLS scattering intensity ([1]; uM] 2) | DLS scattering intensity ([1]; uM] -0.500011) | DLS scattering intensity ([1]; uM] -1)
Cc1nc(CC2CC2)oc1-c1nc(Cc2cc3c(cc2Br)OCO3)no1 [‘7019] | 0 | 0 | 13.7 | 16.9 | 0 | 0 | 2130000 and 1970000 and 1380000 | 1540000 and 2950000 and 1930000 | 46500000 and 37100000 and 47300000 | 1480000* and 177000000 and 144000000 | 1270000 and 1420000 and 400669 | 2530000 and 1820000 and 2230000
Cc1c(C(=O)OCC2CSc3ccccc3O2)cnn1Cc1ccccc1 (stereo not drawn) [‘7800] |  |  |  |  |  |  | 1640000 and 1120000 and 1230000 | 22000000 and 23800000 and 19200000 | 97300000 and 53900000 and 120000000 | 210000000 and 155600000 and 163000000 | 631259 and 1270000 and 2510000 | 884292 and 807566 and 1180000
